The record followed here is ChEMBL document CHEMBL1152560, “Substituted 2-arylbenzothiazoles as kinase inhibitors: hit-to-lead optimization” (Bioorg Med Chem, 2009).

Assay [1] deals with Casein kinase I isoform alpha (Homo sapiens) (UniProt P48729). Nature of the assay: Residual activity of CK1alpha1 at 1 uM by microplate scintillation counting.
The target in assay [2] is Tyrosine-protein kinase Fer (Homo sapiens) (UniProt P16591). Nature of the assay: Residual activity of FER at 1 uM by microplate scintillation counting.
Chain of Tyrosine-protein kinase Fer (Homo sapiens) (P16591 whole entry, looked up): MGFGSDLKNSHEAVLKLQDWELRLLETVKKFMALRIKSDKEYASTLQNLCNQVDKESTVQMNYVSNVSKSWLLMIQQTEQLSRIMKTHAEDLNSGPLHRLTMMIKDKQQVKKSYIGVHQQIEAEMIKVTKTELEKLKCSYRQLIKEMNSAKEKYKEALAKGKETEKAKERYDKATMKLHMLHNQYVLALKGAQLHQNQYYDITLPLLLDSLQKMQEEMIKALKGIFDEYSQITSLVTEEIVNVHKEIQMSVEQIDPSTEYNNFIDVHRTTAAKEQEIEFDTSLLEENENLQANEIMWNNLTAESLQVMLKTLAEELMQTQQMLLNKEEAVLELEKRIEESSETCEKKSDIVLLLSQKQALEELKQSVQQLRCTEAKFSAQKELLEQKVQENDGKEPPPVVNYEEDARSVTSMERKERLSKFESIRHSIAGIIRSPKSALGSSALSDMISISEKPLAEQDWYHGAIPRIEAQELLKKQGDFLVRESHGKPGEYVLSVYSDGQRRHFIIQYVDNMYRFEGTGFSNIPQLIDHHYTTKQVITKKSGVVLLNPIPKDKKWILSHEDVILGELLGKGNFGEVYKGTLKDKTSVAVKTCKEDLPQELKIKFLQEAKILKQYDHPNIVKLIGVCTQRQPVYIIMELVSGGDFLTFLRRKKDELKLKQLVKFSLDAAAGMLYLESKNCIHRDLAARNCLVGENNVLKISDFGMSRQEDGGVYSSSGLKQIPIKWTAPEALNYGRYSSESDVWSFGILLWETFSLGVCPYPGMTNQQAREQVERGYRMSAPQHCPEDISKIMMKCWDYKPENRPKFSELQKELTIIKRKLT
The test system of assay [3] is Fibroblast growth factor receptor 1 (Homo sapiens), P11362 [V561M]. Nature of the assay: Residual activity of FGFR1 V561M mutant at 0.1 uM by microplate scintillation counting.
Chain of Fibroblast growth factor receptor 1 (Homo sapiens), P11362 [V561M] (P11362 whole entry V561M): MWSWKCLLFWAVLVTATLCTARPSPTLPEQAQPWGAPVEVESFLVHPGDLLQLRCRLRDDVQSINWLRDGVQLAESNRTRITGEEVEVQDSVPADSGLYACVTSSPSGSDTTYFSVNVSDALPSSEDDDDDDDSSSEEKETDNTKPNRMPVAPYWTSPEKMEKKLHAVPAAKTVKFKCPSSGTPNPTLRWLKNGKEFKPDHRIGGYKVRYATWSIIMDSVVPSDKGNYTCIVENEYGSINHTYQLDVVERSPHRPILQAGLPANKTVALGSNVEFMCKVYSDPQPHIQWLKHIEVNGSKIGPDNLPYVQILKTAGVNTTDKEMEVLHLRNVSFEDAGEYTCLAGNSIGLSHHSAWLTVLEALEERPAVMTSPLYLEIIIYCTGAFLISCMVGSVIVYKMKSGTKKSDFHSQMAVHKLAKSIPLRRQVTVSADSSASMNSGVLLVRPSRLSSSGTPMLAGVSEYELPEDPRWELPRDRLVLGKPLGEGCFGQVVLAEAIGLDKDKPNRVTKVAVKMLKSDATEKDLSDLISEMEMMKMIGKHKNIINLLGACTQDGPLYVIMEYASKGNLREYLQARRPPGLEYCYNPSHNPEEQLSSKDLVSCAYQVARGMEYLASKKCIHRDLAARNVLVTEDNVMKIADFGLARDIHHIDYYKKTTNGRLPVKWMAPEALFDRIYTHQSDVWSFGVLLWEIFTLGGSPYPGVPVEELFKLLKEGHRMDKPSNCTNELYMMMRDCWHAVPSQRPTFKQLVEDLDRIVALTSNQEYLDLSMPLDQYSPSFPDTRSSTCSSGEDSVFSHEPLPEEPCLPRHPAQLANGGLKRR
Assay [4] deals with Fibroblast growth factor receptor 4 (Homo sapiens) (UniProt P22455). As to the kind of experiment: Residual activity of FGFR4 at 0.1 uM by microplate scintillation counting.
Chain of Fibroblast growth factor receptor 4 (Homo sapiens) (P22455 22-802 limits assumed): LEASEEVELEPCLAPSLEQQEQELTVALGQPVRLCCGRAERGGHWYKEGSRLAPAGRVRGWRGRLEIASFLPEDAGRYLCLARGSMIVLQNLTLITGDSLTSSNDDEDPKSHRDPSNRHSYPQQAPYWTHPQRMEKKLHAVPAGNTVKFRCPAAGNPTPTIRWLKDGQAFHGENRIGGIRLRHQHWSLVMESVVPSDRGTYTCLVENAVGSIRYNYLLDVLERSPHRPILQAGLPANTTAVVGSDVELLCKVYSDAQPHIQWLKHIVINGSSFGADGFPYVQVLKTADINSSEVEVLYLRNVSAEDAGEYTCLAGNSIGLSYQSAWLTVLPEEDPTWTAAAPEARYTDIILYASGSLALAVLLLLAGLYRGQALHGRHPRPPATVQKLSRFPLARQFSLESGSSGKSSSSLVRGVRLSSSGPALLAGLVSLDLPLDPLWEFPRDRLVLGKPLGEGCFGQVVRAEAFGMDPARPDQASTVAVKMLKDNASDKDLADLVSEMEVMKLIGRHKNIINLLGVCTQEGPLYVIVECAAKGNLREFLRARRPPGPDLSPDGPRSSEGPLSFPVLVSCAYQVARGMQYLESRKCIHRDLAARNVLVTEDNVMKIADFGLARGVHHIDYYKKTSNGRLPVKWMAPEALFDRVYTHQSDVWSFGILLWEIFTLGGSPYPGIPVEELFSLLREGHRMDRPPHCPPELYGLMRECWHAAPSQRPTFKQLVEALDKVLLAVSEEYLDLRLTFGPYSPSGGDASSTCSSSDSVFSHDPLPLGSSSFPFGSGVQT
Assay [5] deals with Interleukin-1 receptor-associated kinase 1 (Homo sapiens) (UniProt P51617). As to the kind of experiment: Residual activity of IRAKI at 0.1 uM by microplate scintillation counting.
Chain of Interleukin-1 receptor-associated kinase 1 (Homo sapiens) (P51617 whole entry, looked up): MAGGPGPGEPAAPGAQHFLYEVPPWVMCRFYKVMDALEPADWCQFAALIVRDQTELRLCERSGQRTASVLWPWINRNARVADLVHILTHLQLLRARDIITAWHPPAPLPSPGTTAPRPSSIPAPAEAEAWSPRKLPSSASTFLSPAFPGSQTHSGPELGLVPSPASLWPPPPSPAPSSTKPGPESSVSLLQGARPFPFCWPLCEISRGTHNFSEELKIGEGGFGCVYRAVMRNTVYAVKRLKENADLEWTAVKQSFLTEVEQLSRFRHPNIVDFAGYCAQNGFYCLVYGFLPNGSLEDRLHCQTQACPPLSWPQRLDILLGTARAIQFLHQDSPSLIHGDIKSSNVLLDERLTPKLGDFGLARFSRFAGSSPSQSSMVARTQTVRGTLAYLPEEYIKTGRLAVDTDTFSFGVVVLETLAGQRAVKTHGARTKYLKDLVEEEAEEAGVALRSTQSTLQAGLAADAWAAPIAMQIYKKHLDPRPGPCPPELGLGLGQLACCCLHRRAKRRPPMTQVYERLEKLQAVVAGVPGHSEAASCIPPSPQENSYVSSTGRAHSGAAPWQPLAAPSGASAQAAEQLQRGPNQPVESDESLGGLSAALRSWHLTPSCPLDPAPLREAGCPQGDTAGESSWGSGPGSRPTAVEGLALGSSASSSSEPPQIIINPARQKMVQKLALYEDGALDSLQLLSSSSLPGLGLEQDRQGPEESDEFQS
Assay [6] deals with Serine/threonine-protein kinase 26 (Homo sapiens) (UniProt Q9P289). As to the kind of experiment: Residual activity of MST4 at 1 uM by microplate scintillation counting.
Chain of Serine/threonine-protein kinase 26 (Homo sapiens) (Q9P289 2-416 limits assumed): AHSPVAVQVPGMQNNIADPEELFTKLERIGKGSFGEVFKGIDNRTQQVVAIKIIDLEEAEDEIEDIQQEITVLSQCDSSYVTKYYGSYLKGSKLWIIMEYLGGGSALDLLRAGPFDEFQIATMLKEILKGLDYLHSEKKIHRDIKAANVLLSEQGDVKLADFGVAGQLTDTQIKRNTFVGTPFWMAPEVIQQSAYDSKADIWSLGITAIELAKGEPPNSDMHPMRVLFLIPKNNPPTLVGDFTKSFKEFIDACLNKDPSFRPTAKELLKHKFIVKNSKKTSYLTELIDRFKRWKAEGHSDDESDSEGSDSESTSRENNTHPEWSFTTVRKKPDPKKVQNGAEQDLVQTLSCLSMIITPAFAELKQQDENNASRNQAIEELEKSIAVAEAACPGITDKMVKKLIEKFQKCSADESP
Assay [7] addresses T1, Serine/threonine-protein kinase VRK1 (Homo sapiens) (UniProt Q99986).
T1 sequence (whole entry): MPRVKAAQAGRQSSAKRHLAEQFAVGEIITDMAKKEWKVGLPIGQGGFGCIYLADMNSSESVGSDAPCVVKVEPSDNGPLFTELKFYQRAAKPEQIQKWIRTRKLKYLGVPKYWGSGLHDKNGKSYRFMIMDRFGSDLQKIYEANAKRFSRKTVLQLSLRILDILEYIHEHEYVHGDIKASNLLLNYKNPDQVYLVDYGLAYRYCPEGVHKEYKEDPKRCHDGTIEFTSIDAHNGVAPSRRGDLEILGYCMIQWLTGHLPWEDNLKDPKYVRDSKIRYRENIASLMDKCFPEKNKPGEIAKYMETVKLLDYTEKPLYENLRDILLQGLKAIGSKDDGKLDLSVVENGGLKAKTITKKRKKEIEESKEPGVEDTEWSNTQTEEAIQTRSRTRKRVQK
As to the kind of experiment: Residual activity of VRK1 at 1 uM by microplate scintillation counting.

Assay [8] addresses T2, Activin receptor type-1 (Homo sapiens) (UniProt Q04771).
T2 sequence (whole entry): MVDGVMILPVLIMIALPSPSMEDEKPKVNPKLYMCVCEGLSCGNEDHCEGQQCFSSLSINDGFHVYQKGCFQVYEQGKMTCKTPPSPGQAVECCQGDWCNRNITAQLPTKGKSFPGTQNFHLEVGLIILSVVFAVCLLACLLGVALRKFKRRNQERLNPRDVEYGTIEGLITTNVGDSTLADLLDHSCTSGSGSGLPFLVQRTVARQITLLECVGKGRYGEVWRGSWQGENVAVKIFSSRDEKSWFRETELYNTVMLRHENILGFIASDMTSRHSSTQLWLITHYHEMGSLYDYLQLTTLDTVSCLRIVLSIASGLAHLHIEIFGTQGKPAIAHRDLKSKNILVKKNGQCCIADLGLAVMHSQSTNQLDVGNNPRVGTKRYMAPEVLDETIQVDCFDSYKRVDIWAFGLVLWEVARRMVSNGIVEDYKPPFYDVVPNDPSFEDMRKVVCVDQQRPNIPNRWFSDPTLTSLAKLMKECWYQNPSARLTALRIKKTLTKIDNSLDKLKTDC
Nature of the assay: Residual activity of ACV-R1 at 10 uM by microplate scintillation counting.

For assay [9], the target named is T3, Aurora kinase A (Homo sapiens) (UniProt O14965).
T3 sequence (whole entry): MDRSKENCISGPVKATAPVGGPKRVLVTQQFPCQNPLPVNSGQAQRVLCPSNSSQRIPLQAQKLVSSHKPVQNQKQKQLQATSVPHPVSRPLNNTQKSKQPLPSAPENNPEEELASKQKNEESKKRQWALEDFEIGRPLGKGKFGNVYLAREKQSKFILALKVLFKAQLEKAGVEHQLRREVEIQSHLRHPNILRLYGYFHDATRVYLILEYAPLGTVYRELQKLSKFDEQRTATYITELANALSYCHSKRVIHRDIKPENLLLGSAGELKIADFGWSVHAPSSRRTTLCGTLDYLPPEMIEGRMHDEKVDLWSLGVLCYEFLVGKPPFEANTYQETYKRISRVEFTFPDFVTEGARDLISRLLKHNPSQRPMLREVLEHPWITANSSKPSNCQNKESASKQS
Nature of the assay: Residual activity of Aurora-A at 10 uM by microplate scintillation counting.

Assay [10] deals with Cyclin-dependent kinase 5/CDK5 activator 1 (Homo sapiens) (UniProt Q00535+Q15078). As to the kind of experiment: Residual activity of CDK5/p35NCK at 10 uM by microplate scintillation counting. The format is protein-complex assay.
In assay [11] the target is Dual specificity mitogen-activated protein kinase kinase 1 (Homo sapiens) (UniProt Q02750). Nature of the assay: Residual activity of wild type MEK1 at 10 uM by microplate scintillation counting.
The target in assay [12] is T4, Mitogen-activated protein kinase 12 (Homo sapiens) (UniProt P53778).
T4 sequence (whole entry): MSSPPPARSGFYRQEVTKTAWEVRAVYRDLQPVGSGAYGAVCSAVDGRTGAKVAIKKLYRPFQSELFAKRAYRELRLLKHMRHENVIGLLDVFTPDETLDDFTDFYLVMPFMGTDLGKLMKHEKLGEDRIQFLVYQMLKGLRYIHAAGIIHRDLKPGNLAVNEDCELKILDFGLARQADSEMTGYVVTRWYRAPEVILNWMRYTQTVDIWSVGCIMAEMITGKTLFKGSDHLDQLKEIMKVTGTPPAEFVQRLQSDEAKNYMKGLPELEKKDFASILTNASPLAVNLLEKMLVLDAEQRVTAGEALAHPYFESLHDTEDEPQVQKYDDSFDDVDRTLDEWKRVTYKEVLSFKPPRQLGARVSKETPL
Nature of the assay: Residual activity of p38-gamma at 10 uM by microplate scintillation counting.

Assay [13] deals with Platelet-derived growth factor receptor alpha (Homo sapiens) (UniProt P16234). As to the kind of experiment: Residual activity of PDGFRalpha at 10 uM by microplate scintillation counting.
The target in assay [14] is Protein kinase C eta type (Homo sapiens) (UniProt P24723). As to the kind of experiment: Residual activity of PKCeta at 10 uM by microplate scintillation counting.
Chain of Protein kinase C eta type (Homo sapiens) (P24723 whole entry): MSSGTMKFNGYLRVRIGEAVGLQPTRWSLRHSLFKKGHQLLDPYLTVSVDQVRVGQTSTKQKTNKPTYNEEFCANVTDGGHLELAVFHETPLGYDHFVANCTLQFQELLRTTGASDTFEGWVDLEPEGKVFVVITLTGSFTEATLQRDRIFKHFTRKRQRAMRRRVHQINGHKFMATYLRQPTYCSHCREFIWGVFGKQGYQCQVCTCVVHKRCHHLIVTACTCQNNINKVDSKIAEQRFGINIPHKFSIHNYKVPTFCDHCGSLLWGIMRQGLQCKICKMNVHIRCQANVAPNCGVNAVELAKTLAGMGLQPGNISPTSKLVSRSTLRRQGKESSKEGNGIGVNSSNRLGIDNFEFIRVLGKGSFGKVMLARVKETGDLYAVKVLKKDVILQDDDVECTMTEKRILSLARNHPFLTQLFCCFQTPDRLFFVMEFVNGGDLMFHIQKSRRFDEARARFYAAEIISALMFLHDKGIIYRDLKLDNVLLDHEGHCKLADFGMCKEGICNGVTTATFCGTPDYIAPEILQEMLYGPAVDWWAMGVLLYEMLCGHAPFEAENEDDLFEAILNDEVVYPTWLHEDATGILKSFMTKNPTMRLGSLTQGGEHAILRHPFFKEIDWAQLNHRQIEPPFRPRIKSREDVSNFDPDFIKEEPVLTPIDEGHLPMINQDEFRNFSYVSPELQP
The target in assay [15] is RAC-alpha serine/threonine-protein kinase (Homo sapiens) (UniProt P31749). As to the kind of experiment: Residual activity of AKT1 at 0.1 uM by microplate scintillation counting.
Chain of RAC-alpha serine/threonine-protein kinase (Homo sapiens) (P31749 whole entry, canonical isoform): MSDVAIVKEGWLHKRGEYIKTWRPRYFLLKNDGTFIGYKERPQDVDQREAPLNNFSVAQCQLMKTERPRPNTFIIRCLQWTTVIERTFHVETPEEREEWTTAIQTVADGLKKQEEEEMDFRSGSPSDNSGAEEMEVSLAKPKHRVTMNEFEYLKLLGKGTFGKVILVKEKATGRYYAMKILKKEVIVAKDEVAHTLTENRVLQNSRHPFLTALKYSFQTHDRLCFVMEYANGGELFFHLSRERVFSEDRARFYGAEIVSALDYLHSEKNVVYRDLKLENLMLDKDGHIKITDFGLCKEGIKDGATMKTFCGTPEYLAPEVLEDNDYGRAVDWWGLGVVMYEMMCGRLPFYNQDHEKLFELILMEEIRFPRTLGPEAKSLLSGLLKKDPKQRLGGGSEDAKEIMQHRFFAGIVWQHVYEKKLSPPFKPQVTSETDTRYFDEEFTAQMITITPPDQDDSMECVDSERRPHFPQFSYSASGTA
For assay [16], the target named is Casein kinase I isoform alpha (Homo sapiens) (UniProt P48729). Nature of the assay: Residual activity of CK1alpha1 at 0.1 uM by microplate scintillation counting.
Assay [17] concerns the target Casein kinase I isoform gamma-3 (Homo sapiens) (UniProt Q9Y6M4). Nature of the assay: Residual activity of CK1gamma3 at 0.1 uM by microplate scintillation counting.
The target in assay [18] is SRSF protein kinase 2 (Homo sapiens) (UniProt P78362). Nature of the assay: Residual activity of SRPK2 at 10 uM by microplate scintillation counting.
Assay [19] deals with Vascular endothelial growth factor receptor 1 (Homo sapiens) (UniProt P17948). Nature of the assay: Residual activity of VEGFR1 at 10 uM by microplate scintillation counting.

Chain of Casein kinase I isoform alpha (Homo sapiens) (P48729 2-337 limits assumed): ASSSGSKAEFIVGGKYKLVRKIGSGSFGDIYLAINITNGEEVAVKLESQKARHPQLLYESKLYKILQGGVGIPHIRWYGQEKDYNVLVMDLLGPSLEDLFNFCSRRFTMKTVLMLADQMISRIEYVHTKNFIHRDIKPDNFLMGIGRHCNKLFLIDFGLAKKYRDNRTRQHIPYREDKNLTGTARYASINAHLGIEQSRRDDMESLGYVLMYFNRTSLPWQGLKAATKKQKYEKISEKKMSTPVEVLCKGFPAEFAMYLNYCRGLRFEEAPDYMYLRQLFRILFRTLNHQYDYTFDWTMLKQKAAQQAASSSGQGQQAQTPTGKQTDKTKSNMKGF

Turning to `COc1cc2c(Oc3ccc(-c4nc5ccccc5s4)cc3)ncnc2cc1OCCCN1CCN(C)CC1`, the residual activity in assay [1] came to 99%; in assay [2], 107%; in assay [3], 109%; in assay [4] it was 104%; in assay [5], 77%; in assay [6], 109%. Further, the residual activity in [7] was 103%; in [8], 87%; in assay [9], 5%; in assay [10], 96%; in [11] it was 26%; in assay [12] it was 136%. For the same molecule, the residual activity came out at 20% in assay [13]; 71% in [14]; 102% in assay [15]; 101% in assay [16]; 76% in assay [17]; 115% in [18]. In addition, the residual activity in [19] is 35%.
With `COc1cc2c(Oc3ccc(-c4nc5ccccc5s4)cc3)ncnc2cc1OCCCN1CCCC1`, the residual activity in assay [1] turned out to be 102%; in [2], 103%; in [3], 108%; in assay [4] it was 100%; in assay [5], 61%; in assay [6] it was 98%. The residual activity in assay [7] stood at 95%; in assay [8], 81%; in [9] it was 4%; in [10], 98%; in [11], 15%; in assay [12] it was 292%. The residual activity in assay [13] was determined as 15%; in assay [14], 81%; in [15], 91%; in [16], 102%; in assay [17] it was 94%; in assay [18], 128%. For the same molecule, in assay [19], the residual activity is 28%.
As for `COc1cc2c(Oc3ccc(-c4nc5ccccc5s4)cc3F)ncnc2cc1OCCCN1CCN(C)CC1`, the residual activity in assay [1] amounted to 103%; in [2] it was 96%; in assay [3], 93%; in assay [4], 109%; in assay [5] it was 84%; in assay [6], 109%. The residual activity in assay [7] came to 98%; in assay [8], 96%; in assay [9] it was 4%; in assay [10] it was 86%; in assay [11], 3%; in assay [12] it was 207%. Moreover, the residual activity in [13] turned out to be 30%; in assay [14] it was 55%; in [15] it was 100%; in [16] it was 93%; in [17], 90%; in assay [18] it was 100%. Moreover, the residual activity in assay [19] stood at 14%.
